Source: PMC6030093, “Discovery of peptide probes to modulate oxytocin-type receptors of insects” (Scientific Reports, 2018)
Entries after “also recorded” stand apart in the source; their conditions may differ. Positions of bridges follow the written chain, without caps; N, C: chain ends. No end group written: not given here.

How the values were obtained:
[1] = test system: T. castaneum inotocin receptor; settings: initial characterisation of the T. castaneum receptor; cited from earlier work
From the text: In parallel to characterising the inotocin receptor activity of kalata B7, we sought to identify an antagonist peptide. Our recent study with the L. niger inotocin peptide-receptor system[11] further emphasised the structural homology shared between inotocin receptors and human oxytocin/vasopressin receptors (Fig. 2, Table 1). […] Given this homology, we were interested in the ability of the oxytocin/V1a receptor anta ...

[2] = test system: T. castaneum inotocin receptor; test: IP1 accumulation, agonist mode (T. castaneum inotocin receptor); format: cell-based, Tribolium castaneum
From the text: (§1) The T. castaneum receptor gene was kindly provided by Yoonseong Park (Kansas State University)[8], whereas the L. niger inotocin receptor gene had been cloned and sequenced as per Di Giglio et al.[11]. Both receptor constructs were subsequently cloned into the pEGFP-N1 expression plasmid, generating C-terminal EGFP fusion receptor proteins. Receptors were expressed in HEK293 cells (ATCC, CRL 1573) via transfection using the Lipofectamine 2000® transfection reagent. The use of mammalian cell lines to study the receptors of insects and other invertebrate species, in the same vain as orphan receptors from mammalian genomes, is considered a standard procedure. Various studies have utilized this approach[8],[9],[11]. Whilst such mammalian cell lines may not completely mimic insect cell biology, GPCRs and their signalling is highly homologous across the animal kingdom; it would be unlikely that the insect receptors would mis-fold in a mammalian cell line. Nevertheless, during assay optimization we routinely monitored surface expression of GFP-tagged receptors, and we only proceeded to pharmacological assays, if the receptor localized at the cell membrane. Moreover, most biochemical cell-based functional assays are optimized for mammalian cells. Whilst it is possible that insect cells could be utilized for these assays, it is unknown whether they endogenously express inotocin receptors. […] Accordingly, mammalian cells were cultured in DMEM supplemented with 10% FBS and penicillin/streptomycin (100 U mL^−1) and plated in 6-well plates prior to transfection. When cells had reached confluency, cells were transfected as per the manufacturer’s protocol with 2.5 µg per well of each respective receptor construct using a DNA:Lipofectamine 2000® ratio of 1:3 prepared in serum-free DMEM. After 4–6 h, cells were dissociated by trituration and replated into white opaque 384-well plates (CellStar®, Greiner, Kremsmünster, Austria) at approximately 10,000 cells per well. Cells were cultured for approximately 38–48 h in a humidified incubator at 37 °C and an atmosphere of 5% CO2, and then assayed for second messenger production. Verification of receptor expression was assessed via microscopic examination of membrane localised GFP fluorescence.
(§2) Quantitative measurements of receptor-mediated inositol 1-phosphate (IP1) were performed by competitive immunoassay utilising the IP-One assay kit (CisBio, France). HEK293 cells were prepared as described above and then assayed as per the manufacturer’s protocol. Briefly, at the time of assay, the culture media was removed from cells, and then replaced with IP-One stimulation buffer (HEPES 10 mM, CaCl2 1 mM, MgCl2 0.5 mM, KCl 4.2 mM, NaCl 146 mM, glucose 5.5 mM, LiCl 50 mM, pH 7.4). […] The stimulation was terminated by lysis and the simultaneous addition of homogenous time-resolved fluorescence resonance energy transfer reagents. […] Fluorescence emission measurements at 620 nm and 665 nm were performed using a FlexStation3 plate reader (Molecular Devices, Sunnyvale, CA) or Spark Multimode plate reader (Tecan, Männedorf, Switzerland) at an excitation wavelength of 340 nm. Results were analysed as a ratio of fluorescence intensities of 665 nm to 620 nm.
(§3) Data from cellular assays were analysed using GraphPad Prism 7.03 (GraphPad Software, San Diego). […]

[3] = test system: L. niger inotocin receptor; test: IP1 accumulation, agonist mode (L. niger inotocin receptor); format: cell-based, Lasius niger; settings: for Emax / LogEC50: HEK293 cells expressing L. niger receptor (C-terminal EGFP fusion), IP-One HTRF assay, mean ± S.E.M. from at least three independent experiments in triplicate; for Emax: 1 h at 37 °C; for LogEC50: pH 7.4, 1 h at 37 °C
From the text: as §1
Quantitative measurements of receptor-mediated inositol 1-phosphate (IP1) were performed by competitive immunoassay utilising the IP-One assay kit (CisBio, France). HEK293 cells were prepared as described above and then assayed as per the manufacturer’s protocol. Briefly, at the time of assay, the culture media was removed from cells, and then replaced with IP-One stimulation buffer (HEPES 10 mM, CaCl2 1 mM, MgCl2 0.5 mM, KCl 4.2 mM, NaCl 146 mM, glucose 5.5 mM, LiCl 50 mM, pH 7.4). Cells were allowed to equilibrate in the stimulation buffer at 37 °C for 15 min, followed by addition of peptide ligands (to final concentrations of 0.1 pM – 10 µM) for subsequent stimulation for 1 h at 37 °C. The stimulation was terminated by lysis and the simultaneous addition of homogenous time-resolved fluorescence resonance energy transfer reagents. The lysates were incubated for a minimum of 1 h at room temperature. Fluorescence emission measurements at 620 nm and 665 nm were performed using a FlexStation3 plate reader (Molecular Devices, Sunnyvale, CA) or Spark Multimode plate reader (Tecan, Männedorf, Switzerland) at an excitation wavelength of 340 nm. Results were analysed as a ratio of fluorescence intensities of 665 nm to 620 nm.
Data from cellular assays were analysed using GraphPad Prism 7.03 (GraphPad Software, San Diego). Concentration-response data were fitted to three- or four-parameter logistic equations to derive estimates of potency (LogEC50) and efficacy (Emax), relative to the maximal inotocin control response. Data from agonist-antagonist interaction experiments were fit to a Schild regression analysis.

human oxytocin receptor = settings: cited from earlier work
From the text: (§4) Compared to the level of identity between the T. castaneum inotocin receptor and its human counterparts (approximately 37–40% similarity ...

[4] = test system: human vasopressin V1a receptor; settings: cited from earlier work
From the text: as §4

[5] = test system: T. castaneum inotocin receptor; test: Antagonism of inotocin-mediated IP1 accumulation, Schild analysis; format: cell-based, Tribolium castaneum; settings: HEK293, IP1
From the text: as §1, with “After 4–6 h, cells were dissociated by trituration and replated into white opaque 384-well plates (CellStar®, Greiner, Kremsmünster, Austria) at approximately 10,000 cells per well. Cells were cultured for approximately 38–48 h in a humidified incubator at 37 °C and an atmosphere of 5% CO2, and then assayed for second messenger production.” left out
as §2, with “France).” for “France). HEK293 cells were prepared as described above and then assayed as per the manufacturer’s protocol. Briefly, at the time of assay, the culture media was removed from cells, and then replaced with IP-One stimulation buffer (HEPES 10 mM, CaCl2 1 mM, MgCl2 0.5 mM, KCl 4.2 mM, NaCl 146 mM, glucose 5.5 mM, LiCl 50 mM, pH 7.4).”
as §3

[6] = target: Lasius niger inotocin receptor (Lasius niger)
[7] = target: Tribolium castaneum inotocin receptor (Tribolium castaneum)
[8] = T. castaneum receptor, IP1 accumulation, HEK293
[9] = L. niger receptor, IP1 accumulation, HEK293

## oxytocin: reported agonist of the T. castaneum receptor
[1]
  agonist activity at T. castaneum receptor (in words): agonist

## kalata B7: plant-derived cyclic peptide (cyclotide) from Oldenlandia affinis, synthesised by Fmoc-SPPS and native chemical ligation (cyclo(GLPVCGETCTLGTCYTQGCTCSWPICKRN); also: oxidized form, disulfides not placed)
[2]; HEK293 cells expressing T. castaneum receptor (C-terminal EGFP fusion), IP-One HTRF assay, 1 h at 37 °C, mean ± S.E.M. from at least three independent experiments in triplicate
  Emax: 60.3 ± 9.6 % inotocin max. response
[2]; HEK293 cells expressing T. castaneum receptor (C-terminal EGFP fusion), IP-One HTRF assay, pH 7.4, 1 h at 37 °C, mean ± S.E.M. from at least three independent experiments in triplicate
  LogEC50: −5.14 ± 0.22 Log[M]
[2]; [8]
  agonist activity (in words): weak partial agonist
[2]; T. castaneum receptor, IP1 accumulation, HEK293, read-out: potency
  EC50: 7.2 µM
[3]
  Emax: 86.5 ± 4.7 % inotocin max. response
  LogEC50: −5.66 ± 0.10 Log[M]
[3]; [9]
  agonist activity (in words): weak partial agonist
[3]; L. niger receptor, IP1 accumulation, HEK293, read-out: potency
  EC50: 2.2 µM
HEK293 cells
  effects on cell viability: did not observe negative effects on cell viability
Human oxytocin receptor
  activity at human oxytocin receptor (in words): partial agonist
[4]
  activity at human vasopressin V1a receptor (in words): partial agonist

## atosiban
[2]; [8]
  agonist activity (in words): lacked agonist activity
[3]
  Emax: 89.9 ± 4.5 % inotocin max. response
  LogEC50: −5.81 ± 0.12 Log[M]
[3]; [9]
  agonist activity (in words): partial agonist
[5]; dextral displacement of the inotocin concentration-response curve
  antagonism of inotocin (in words): competitively inhibits the T. castaneum inotocin receptor; also recorded: selectively antagonises the T. castaneum receptor
[5]; from Schild analysis (pA2), competitive antagonism of inotocin
  estimated functional affinity: approximately 93 nM
[5]; inotocin 1 pM – 10 µM in absence or presence of 100 nM, 1 µM, 3 µM, 10 µM atosiban, Schild analysis, mean ± S.E.M. of three independent experiments in triplicate
  pA2: 7.03 ± 0.086
[5]; inotocin 1 pM – 10 µM in absence or presence of 100 nM, 1 µM, 3 µM, 10 µM atosiban, mean ± S.E.M. of three independent experiments in triplicate
  Schild Slope: 1.00 ± 0.085

## CLITNCPRG-NH2 (disulfide 1-6 (inferred)) [inotocin]
[6]
  Emax of receptor-mediated IP1 accumulation in HEK293 cells expressing the L. niger inotocin receptor (the reference response) (% inotocin max. response): 100
  LogEC50 of receptor-mediated IP1 accumulation in HEK293 cells expressing the L. niger inotocin receptor: -10.2 Log[M]
[7]
  Emax of receptor-mediated IP1 accumulation in HEK293 cells expressing the T. castaneum inotocin receptor (the reference response): 100%
  LogEC50 of receptor-mediated IP1 accumulation in HEK293 cells expressing the T. castaneum inotocin receptor: -9.63 Log[M]

B1: kalata B7 (peptide)
peptide: cyclo(GLPVCGETCTLGTCYTQGCTCSWPICKRN)
modifications: disulfide (positions not given here); also: oxidized, disulfide pairing not given here
[6]
  Emax of receptor-mediated IP1 accumulation in HEK293 cells expressing the L. niger inotocin receptor (% inotocin max. response): 86.5
  LogEC50 of receptor-mediated IP1 accumulation in HEK293 cells expressing the L. niger inotocin receptor: -5.66 Log[M]
[7]
  Emax of receptor-mediated IP1 accumulation in HEK293 cells expressing the T. castaneum inotocin receptor (% inotocin max. response): 60.3
  LogEC50 of receptor-mediated IP1 accumulation in HEK293 cells expressing the T. castaneum inotocin receptor: -5.14 Log[M]
